Paper PMC3963952, “The 2.1 Å Resolution Structure of Cyanopindolol-Bound β1-Adrenoceptor Identifies an Intramembrane Na^+ Ion that Stabilises the Ligand-Free Receptor” (PLoS ONE, 2014)

How the values were obtained:
[1] = molecular target: β1AR (Meleagris gallopavo, UniProt P07700)
Procedure: For the thermostability assay for the ligand-free receptor, 1–2.5 mg of E. coli-expressed membrane protein was solubilised for 30 min on ice with 1% DDM and insoluble material was removed by centrifugation (5 min, 20,000 g). Samples were then adjusted to give the desired concentration of NaCl or choline chloride. Thermostability was measured by incubating the sample at the specified temperature for 30 min; reactions were placed on ice, and ^3H-DHA was added (50 nM final concentration) and equilibrated (2 h, 4°C). Receptor-bound and free radioligand were separated by spin gel filtration assays as described previously. Nonspecific binding was determined in the presence of 1 mM alprenolol. Radioactivity was counted on a MicroBeta TriLux scintillation counter (Perkin Elmer), and data were analyzed by nonlinear regression using Prism software (GraphPad).
Figure 4 Thermostability of β1AR mutants.

[2] = test system: A2AR; conditions: cited from earlier work
[3] = molecular target: neurotensin receptor (NTSR1); design: method as in PMID 23051748; conditions: read-out: EC50 for the allosteric effect of Na+ on NTSR1; cited from earlier work

Sequence of β1AR (P07700 whole entry): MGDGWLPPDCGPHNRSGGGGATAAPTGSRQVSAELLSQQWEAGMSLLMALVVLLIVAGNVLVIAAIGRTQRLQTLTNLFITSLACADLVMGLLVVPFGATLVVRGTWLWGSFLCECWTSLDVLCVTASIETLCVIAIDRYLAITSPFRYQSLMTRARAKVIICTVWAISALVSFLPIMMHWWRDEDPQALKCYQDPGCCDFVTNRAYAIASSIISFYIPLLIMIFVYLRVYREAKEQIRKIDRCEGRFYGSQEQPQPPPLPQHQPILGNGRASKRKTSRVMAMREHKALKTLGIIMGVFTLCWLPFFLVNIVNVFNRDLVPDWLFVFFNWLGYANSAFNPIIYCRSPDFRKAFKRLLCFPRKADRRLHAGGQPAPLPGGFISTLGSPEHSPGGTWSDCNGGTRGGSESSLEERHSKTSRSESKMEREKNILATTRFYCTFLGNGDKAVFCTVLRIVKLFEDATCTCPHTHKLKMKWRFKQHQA

| SMILES | decrease of β1AR thermostability in the absence of Na+ ([1]; ligand-free β1AR, 150 mM NaCl versus 150 mM choline chloride) [°C] | EC50 ([2]; also calculated from data in ref 21, read-out: EC50 for the allosteric effect of Na+ on A2AR) [mM] | Kd ([2]; no reference given, read-out: KD of Na+ binding to A2AR) [mM] | EC50 [3] [mM] | apparent Tm of dodecylmaltoside-solubilised ligand-free β1AR ([1]; in 150 mM of the named salt, heated 30 min, ±SEM) [°C] |
| --- | --- | --- | --- | --- | --- |
| [Cl-].[Na+] [Na^+] | 7.5 | 40 to 48 | 40 to 50 | 43 |  |
| C[N+](C)(C)CCO.[Cl-] [choline chloride] |  |  |  |  | 19.1±0.6 |
